Test results reported in article PMC10023787, “Trio-pharmacophore DNA-encoded chemical library for simultaneous selection of fragments and linkers” (Nature Communications, 2023).

Columns and labels:
bovine trypsin = molecular target: T1, bovine trypsin (Bos taurus, UniProt P00760); assay: Trypsin inhibition assay (proteolytic activity on BApNA); format: biochemical; conditions: for remaining activity at 0.0001024 µM: Concentration 0.1024 nM; for remaining activity at 0.0001024 µM / remaining activity at 0.000512 µM / remaining activity at 0.00256 µM / remaining activity at 0.064 µM / remaining activity at 0.32 µM / remaining activity at 1.6 µM / remaining activity at 8 µM / remaining activity at 40 µM / remaining activity at 200 µM / remaining activity at 1000 µM: fraction of uninhibited activity, read-out: mean (Figure 3c, dose-response, relative trypsin activity); for remaining activity at 0.000512 µM: Concentration 0.512 nM; for remaining activity at 0.00256 µM: Concentration 2.56 nM; for remaining activity at 0.064 µM: Concentration 64 nM; for remaining activity at 0.32 µM: Concentration 320 nM; for remaining activity at 1.6 µM: Concentration 1600 nM; for remaining activity at 8 µM: Concentration 8000 nM; for remaining activity at 40 µM: Concentration 40000 nM; for remaining activity at 200 µM: Concentration 200000 nM; for remaining activity at 1000 µM: Concentration 1000000 nM
T1 construct: purchased Sigma-Aldrich T8003
T1 sequence (P00760 24-246): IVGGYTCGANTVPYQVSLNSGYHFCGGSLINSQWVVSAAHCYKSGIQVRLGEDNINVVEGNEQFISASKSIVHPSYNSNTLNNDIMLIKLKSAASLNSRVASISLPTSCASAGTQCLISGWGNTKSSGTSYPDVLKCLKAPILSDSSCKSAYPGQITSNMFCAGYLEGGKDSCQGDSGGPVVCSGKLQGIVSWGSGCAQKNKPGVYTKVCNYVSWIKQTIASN
Description: The inhibition by the benzamidine derivatives against trypsin was measured using an assay probing the enzyme proteolytic activity on the substrate Nα-Benzoyl-DL-arginine-4-nitroanilide hydrochloride (BApNA). […] 5 µl of BApNA solution (10 mM, dissolved in DMSO) were added immediately prior to the measurement. The final total volume was 100 µl per well. The measurements were performed in a Low Binding 384-well plate. The absorption was measured at 410 nm in intervals of 10 sec for 15 min at 37 °C using a Beckman Coulter’s Paradigm Detection Platform (Brea, USA). The measurements were performed in triplicate. The activity of trypsin was calculated by the hydrolysis rate of BApNA after subtraction of the background-hydrolysis rate. The curves were plotted as a function of the concentration of the inhibitor against the relative enzyme activity. Vmax was derived from the detected absorption signal for each concentration and logistic fitting was performed to obtain IC50 values using Origin 2019b (OriginLab).

[1] = molecular target: T2, bovine carbonic anhydrase II (CAII) (Bos taurus, UniProt P00921); assay: Carbonic anhydrase II inhibition assay (esterase activity on p-nitrophenyl acetate); format: biochemical; conditions: for remaining activity at 0.0001024 µM: 0.1024 nM compound; for remaining activity at 0.0001024 µM / remaining activity at 0.000512 µM / remaining activity at 0.00256 µM / remaining activity at 0.064 µM / remaining activity at 0.32 µM / remaining activity at 1.6 µM / remaining activity at 8 µM / remaining activity at 200 µM / remaining activity at 40 µM: source data of Fig. 2c, read-out: Normalized CA II Activity (Mean); for remaining activity at 0.000512 µM: 0.512 nM compound; for remaining activity at 0.00256 µM: 2.56 nM compound; for remaining activity at 0.064 µM: 64 nM compound; for remaining activity at 0.32 µM: 320 nM compound; for remaining activity at 1.6 µM: 1600 nM compound; for remaining activity at 8 µM: 8000 nM compound; for remaining activity at 200 µM: 200000 nM compound; for IC50: mean ± SE, three independent measurements, n.d: not detected; for remaining activity at 40 µM: 40000 nM compound
T2 construct: purchased Sigma-Aldrich C7749
Description: CAII inhibition assay was performed to measure the inhibitory effect of re-synthesized CBS-conjugates. The esterase activity of CAII with a chromogenic substrate p-nitrophenyl acetate (pNPA) was measured. The rates of hydrolysis were determined by an increase of absorption at 410 nm after incubating different compounds with CAII. Re-synthesized compounds were diluted in a serial spanning mM to μM concentrations. […] 5 µl of pNPA (50 mM in 20% DMSO) was added to the plate right before the measurement. The absorption was measured at 37 °C each 10 sec for 15 min using a Beckman Coulter’s Paradigm Detection Platform (Brea, USA). The initial Vmax was obtained from the increase of absorption and the Vmax was plotted against the inhibitor concentrations and logistic fitting was performed to obtain IC50 values using Origin 2019b (OriginLab) software.

T2 sequence (P00921 whole entry): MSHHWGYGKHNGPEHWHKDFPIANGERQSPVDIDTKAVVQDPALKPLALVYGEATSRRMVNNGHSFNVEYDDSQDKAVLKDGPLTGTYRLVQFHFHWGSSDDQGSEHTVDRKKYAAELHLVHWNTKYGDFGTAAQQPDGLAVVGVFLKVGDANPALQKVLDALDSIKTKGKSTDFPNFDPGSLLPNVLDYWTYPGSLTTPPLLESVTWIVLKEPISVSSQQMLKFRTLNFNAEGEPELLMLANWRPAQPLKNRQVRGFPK

SMILES	remaining activity at 0.0001024 µM [1]	remaining activity at 0.000512 µM [1]	remaining activity at 0.00256 µM [1]	remaining activity at 0.064 µM [1]	remaining activity at 0.32 µM [1]	remaining activity at 1.6 µM [1]	remaining activity at 8 µM [1]	remaining activity at 200 µM [1]	IC50 [1]	remaining activity at 40 µM [1]	remaining activity at 0.0001024 µM (bovine trypsin)	remaining activity at 0.000512 µM (bovine trypsin)	remaining activity at 0.00256 µM (bovine trypsin)	remaining activity at 0.064 µM (bovine trypsin)	remaining activity at 0.32 µM (bovine trypsin)	remaining activity at 1.6 µM (bovine trypsin)	remaining activity at 8 µM (bovine trypsin)	remaining activity at 40 µM (bovine trypsin)	remaining activity at 200 µM (bovine trypsin)	remaining activity at 1000 µM (bovine trypsin)	other results
N=C(N)c1ccc(CN)cc1 [4-Aminomethyl benzamidine, 4-aminomethyl benzamidine, reference compound]	–	–	–	–	–	–	–	–	–	–	108%	96.5%	102%	110%	101%	106%	103%	82.5%	44.6%	12.9%	IC50 (bovine trypsin; mean ± SE, three independent measurements, n.d: not detected): 147000 nM
S=C=Nc1ccccc1I [Compound B, 2-iodophenyl isothiocyanate, reference compound]	–	–	–	–	–	–	–	–	–	–	103%	102%	94.8%	107%	107%	100%	108%	105%	114%	90.1%	inhibitory effect (bovine trypsin; in words): did not display any detectable inhibitory effect

Now from value to compound, other results behind:

remaining activity at 0.0001024 µM [1]	remaining activity at 0.000512 µM [1]	remaining activity at 0.00256 µM [1]	remaining activity at 0.064 µM [1]	remaining activity at 0.32 µM [1]	remaining activity at 1.6 µM [1]	remaining activity at 8 µM [1]	remaining activity at 200 µM [1]	IC50 [1]	remaining activity at 40 µM [1]	SMILES	remaining activity at 0.0001024 µM (bovine trypsin)	remaining activity at 0.000512 µM (bovine trypsin)	remaining activity at 0.00256 µM (bovine trypsin)	remaining activity at 0.064 µM (bovine trypsin)	remaining activity at 0.32 µM (bovine trypsin)	remaining activity at 1.6 µM (bovine trypsin)	remaining activity at 8 µM (bovine trypsin)	remaining activity at 40 µM (bovine trypsin)	remaining activity at 200 µM (bovine trypsin)	remaining activity at 1000 µM (bovine trypsin)	other results
93.3%	94%	93.6%	84.9%	65.6%	45.7%	38.2%	20.9%	830 nM	–	NS(=O)(=O)c1ccc(NC(=O)/C=C/c2ccc(-c3ccccc3C(F)(F)F)o2)cc1 [Compound C-0]	–	–	–	–	–	–	–	–	–	–	–
93.8%	93.6%	90.4%	87.7%	71.8%	43%	19.9%	2.91%	1290 ± 90 nM	8.01%	NS(=O)(=O)c1ccc(NCc2ccc(C(=O)NCCNC(=O)/C=C/c3ccc(-c4ccccc4C(F)(F)F)o3)cc2)cc1 [Compound C-1]	–	–	–	–	–	–	–	–	–	–	–
91.3%	93.6%	96.1%	83%	61.4%	43.3%	25.6%	14.3%	670 nM	15%	NS(=O)(=O)c1ccc(NC(=O)COc2ccccc2OCC(=O)NCCNC(=O)/C=C/c2ccc(-c3ccccc3C(F)(F)F)o2)cc1 [Compound C-2]	–	–	–	–	–	–	–	–	–	–	improvement in the IC50 value ([1]; compared with sulfanilamide): 20 fold
